Test results from US8143393B2, “Substituted 4-amino-pyrrolotriazine derivatives useful for treating hyper-proliferative disorders and diseases associated with angiogenesis” (Bayer HealthCare LLC, priority 2005, dated 2012).

Molecular target: T1, FGFR-1 (Homo sapiens, UniProt P11362)
T1 construct: GST; made in house
Assay: FGFR-1 TR-FRET biochemical assay
Procedure: FGFR-1TR-FRET Biochemical Assay
The FGFR-1 Assay was performed on half well 96-well opaque plates (Costar 3915) in a LANCE format. LANCE is a homogenous time resolved fluormetry based application available through Perkin Elmer. For this assay, 50 uL reactions were set up using: 0.6 uM ATP (Sigma), 25 nM poly GT-biotin (CIS BIO International), 2 nM Eu-labelled phospho-Tyr Ab (PY20 PerkinElmer), 10 nM Streptavidin-APC (Perkin Elmer), 5 nM FGFR1-GST (generated by DRT, Bayer Healthcare), 1% DMSO, 50 mM HEPES pH 7.5, 10 mM MgCl2, 0.1 mM EDTA, 0.015% Brij, 0.1 mg/ml BSA, 0.1% B-mercaptoethanol. All reactions were initiated with the addition of enzyme and were left to incubate for one hour at room temperature. Time-resolved fluorescence was then read on a Perkin Elmer VictorV Multilabel counter. The reading protocol uses an excitation wavelength at 340 nm and emission reads at both 615 and 665 nm. Signal was calculated as a ratio: (Flourescence at 665 nm/Flourescence at 615 nM)*10000 for each well. The background control used for this assay is the signal produced with all assay components excluding ATP. For IC50 generation, compounds were added prior to the enzyme initiation. A 50-fold stock plate was made with compounds serially diluted 1:5 in a 50% DMSO/50% dH2O solution. A 1 μL addition of the stock to the assay wells gave final compound concentrations ranging from 10 μM-0.128 nM in 1% DMSO. The data were expressed as percent inhibition: % inhibition=100−((Signal with inhibitor−background)/(Signal without inhibitor−background))*100.

[1] = 0.6 uM ATP, 5 nM FGFR1-GST, bounds given in nM
[2] = upper bound of the bin 'greater than 100 nM but less than 1 μM' (lower bound in E1)

T1 sequence (P11362 22-822): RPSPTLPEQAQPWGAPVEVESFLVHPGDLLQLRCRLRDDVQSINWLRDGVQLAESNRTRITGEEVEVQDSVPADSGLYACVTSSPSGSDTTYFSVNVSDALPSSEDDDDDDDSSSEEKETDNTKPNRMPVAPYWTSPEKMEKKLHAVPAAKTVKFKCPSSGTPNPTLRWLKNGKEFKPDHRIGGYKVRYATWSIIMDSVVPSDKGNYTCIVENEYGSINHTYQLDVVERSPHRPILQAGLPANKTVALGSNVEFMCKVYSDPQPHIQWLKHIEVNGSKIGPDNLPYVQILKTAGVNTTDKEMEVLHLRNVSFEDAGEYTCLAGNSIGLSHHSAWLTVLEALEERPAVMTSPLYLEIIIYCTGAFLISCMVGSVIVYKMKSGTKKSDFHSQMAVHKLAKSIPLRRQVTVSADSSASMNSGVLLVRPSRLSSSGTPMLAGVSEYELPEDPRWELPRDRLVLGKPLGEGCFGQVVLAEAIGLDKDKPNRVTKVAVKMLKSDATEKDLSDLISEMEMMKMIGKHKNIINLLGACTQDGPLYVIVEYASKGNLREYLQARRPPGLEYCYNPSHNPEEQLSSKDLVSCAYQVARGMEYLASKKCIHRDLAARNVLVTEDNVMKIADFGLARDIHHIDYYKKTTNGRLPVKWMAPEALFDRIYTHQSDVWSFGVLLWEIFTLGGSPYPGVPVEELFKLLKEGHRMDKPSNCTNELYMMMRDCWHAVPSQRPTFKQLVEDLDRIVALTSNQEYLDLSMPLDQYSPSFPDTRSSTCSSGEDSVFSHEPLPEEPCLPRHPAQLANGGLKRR

IC50 [1] [nM] | IC50 [2] [nM] | Compound
10 to 100 |  | Nc1ncnn2c(CN3CCOCC3)cc(-c3cc(F)c(NC(=O)Nc4cccc(C(F)(F)F)c4F)cc3F)c12 [Example 42, N-{4-[4-amino-7-(morpholin-4-ylmethyl)pyrrolo[2,1-f][1,2,4]triazin-5-yl]-2,5-difluorophenyl}-N′-[2-fluoro-3-(trifluoromethyl)phenyl]urea]
> 100 | < 1000 | CC(C)(C)c1ccccc1NC(=O)Nc1ccc(-c2cc(CN3CCOCC3)n3ncnc(N)c23)cc1 [Example 49, N-{4-[4-amino-7-(morpholin-4-ylmethyl)pyrrolo[2,1-f][1,2,4]triazin-5-yl]phenyl}-N′-(2-tert-butylphenyl)urea]
< 10 |  | CCc1cccc(NC(=O)Nc2ccc(-c3cc(CN4CCOCC4)n4ncnc(N)c34)cc2)c1 [Example 50, N-{4-[4-amino-7-(morpholin-4-ylmethyl)pyrrolo[2,1-f][1,2,4]triazin-5-yl]phenyl}-N′-(3-ethylphenyl)urea]
< 10 |  | Nc1ncnn2c(CN3CCOCC3)cc(-c3ccc(NC(=O)Nc4cc(C(F)(F)F)ccc4Cl)cc3)c12 [Example 52, N-{4-[4-amino-7-(morpholin-4-ylmethyl)pyrrolo[2,1-f][1,2,4]triazin-5-yl]phenyl}-N′-[2-chloro-5-(trifluoromethyl)phenyl]urea]
< 10 |  | CC(C)(C)c1ccnc(NC(=O)Nc2ccc(-c3cc(CN4CCOCC4)n4ncnc(N)c34)cc2)c1 [Example 53, N-{4-[4-amino-7-(morpholin-4-ylmethyl)pyrrolo[2,1-f][1,2,4]triazin-5-yl]phenyl}-N′-(4-tert-butylpyridin-2-yl)urea]
> 100 | < 1000 | Nc1ncnn2c(CN3CCOCC3)cc(-c3ccc(NC(=O)Nc4ccc(F)cn4)cc3)c12 [Example 55, N-{4-[4-amino-7-(morpholin-4-ylmethyl)pyrrolo[2,1-f][1,2,4]-triazin-5-yl]phenyl}-N′-(5-fluoropyridin-2-yl)urea]
> 100 | < 1000 | Cc1cccc(NC(=O)Nc2ccc(-c3cc(CN4CCOCC4)n4ncnc(N)c34)cc2)n1 [Example 57, N-{4-[4-amino-7-(morpholin-4-ylmethyl)pyrrolo[2,1-f][1,2,4]-triazin-5-yl]phenyl}-N′-(6-methylpyridin-2-yl)urea]
10 to 100 |  | Nc1ncnn2c(CN3CCOCC3)cc(-c3ccc(NC(=O)Nc4cccc(C(F)(F)F)c4F)cc3)c12 [Example 58, N-{4-[4-amino-7-(morpholin-4-ylmethyl)pyrrolo[2,1-f][1,2,4]-triazin-5-yl]phenyl}-N′-[2-fluoro-3-(trifluoromethyl)phenyl]urea]
10 to 100 |  | CC(=O)c1cccc(NC(=O)Nc2ccc(-c3cc(CN4CCOCC4)n4ncnc(N)c34)cc2)c1 [Example 59, N-(3-acetylphenyl)-N′-{4-[4-amino-7-(morpholin-4-ylmethyl)pyrrolo[2,1-f][1,2,4]triazin-5-yl]phenyl}urea]
> 100 | < 1000 | Nc1ncnn2c(CN3CCOCC3)cc(-c3ccc(NC(=O)Nc4ccc(Cl)cn4)cc3)c12 [Example 63, N-{4-[4-amino-7-(morpholin-4-ylmethyl)pyrrolo[2,1-f][1,2,4]triazin-5-yl]phenyl}-N′-(5-chloropyridin-2-yl)urea]
< 10 |  | Nc1ncnn2c(CN3CCOCC3)cc(-c3ccc(NC(=O)Nc4cc(C(F)(F)F)ccc4Cl)c(F)c3)c12 [Example 65, N-4-[4-amino-7-(morpholin-4-ylmethyl)pyrrolo[2,1-f][1,2,4]triazin-5-yl]-2-fluorophenyl-N′-[2-chloro-5-(trifluoromethyl)phenyl]urea]
10 to 100 |  | Nc1ncnn2c(CN3CCOCC3)cc(-c3ccc(NC(=O)Nc4cccc(Cl)c4)c(F)c3)c12 [Example 66, N-4-[4-amino-7-(morpholin-4-ylmethyl)pyrrolo[2,1-f][1,2,4]triazin-5-yl]-2-fluorophenyl-N′-(3-chlorophenyl)urea]
< 10 |  | Nc1ncnn2c(CN3CCOCC3)cc(-c3ccc(NC(=O)Nc4cccc(Br)c4)c(F)c3)c12 [Example 67, N-4-[4-amino-7-(morpholin-4-ylmethyl)pyrrolo[2,1-f][1,2,4]triazin-5-yl]-2-fluorophenyl-N′-(3-bromophenyl)urea]
< 10 |  | CCc1cccc(NC(=O)Nc2ccc(-c3cc(CN4CCS(=O)(=O)CC4)n4ncnc(N)c34)cc2F)c1 [Example 75, N-(4-{4-amino-7-[(1,1-dioxidothiomorpholin-4-yl)methyl]pyrrolo[2,1-f][1,2,4]triazin-5-yl}-2-fluorophenyl)-N′-(3-ethylphenyl)urea]
< 10 |  | Nc1ncnn2c(CN3CCS(=O)(=O)CC3)cc(-c3ccc(NC(=O)Nc4cccc(C(F)(F)F)c4)c(F)c3)c12 [Example 77, N-(4-{4-amino-7-[(1,1-dioxidothiomorpholin-4-yl)methyl]pyrrolo[2,1-f][1,2,4]triazin-5-yl}-2-fluorophenyl)-N′-[3-(trifluoromethyl)phenyl]urea]
< 10 |  | Nc1ncnn2c(CN3CCS(=O)(=O)CC3)cc(-c3ccc(NC(=O)Nc4cc(C(F)(F)F)ccn4)c(F)c3)c12 [Example 78, N-(4-{4-amino-7-[(1,1-dioxidothiomorpholin-4-yl)methyl]pyrrolo[2,1-f][1,2,4]triazin-5-yl}-2-fluorophenyl)-N′-[4-(trifluoromethyl)pyridin-2-yl]urea]
< 10 |  | Nc1ncnn2c(CN3CCS(=O)(=O)CC3)cc(-c3ccc(NC(=O)Nc4cc(C(F)(F)F)ccc4F)c(F)c3)c12 [Example 79, N-(4-{4-amino-7-[(1,1-dioxidothiomorpholin-4-yl)methyl]pyrrolo[2,1-f][1,2,4]triazin-5-yl}-2-fluorophenyl)-N′-[2-fluoro-5-(trifluoromethyl)phenyl]urea]
> 100 | < 1000 | CC(C)(C)OC(=O)N1CCN(Cc2cc(-c3ccc(NC(=O)Nc4cc(C(F)(F)F)ccc4F)cc3)c3c(N)ncnn23)CC1 [Example 80, tert-butyl 4-[(4-amino-5-{4-[({[2-fluoro-5-(trifluoromethyl)phenyl]amino}carbonyl)amino]phenyl}pyrrolo[2,1-f][1,2,4]triazin-7-yl)methyl]piperazine-1-carboxylate]
< 10 |  | Nc1ncnn2c(CN3CCNCC3)cc(-c3ccc(NC(=O)Nc4cc(C(F)(F)F)ccc4F)cc3)c12 [Example 81, N-4-[4-amino-7-(piperazin-1-ylmethyl)pyrrolo[2,1-f][1,2,4]triazin-5-yl]phenyl-N′-[2-fluoro-5-(trifluoromethyl)phenyl]urea]
10 to 100 |  | CC(C)(C)OC(=O)N1CCN(Cc2cc(-c3ccc(NC(=O)Nc4cc(C(F)(F)F)ccc4F)c(F)c3)c3c(N)ncnn23)CC1 [Example 82, tert-butyl 4-[(4-amino-5-{3-fluoro-4-[({[2-fluoro-5-(trifluoromethyl)phenyl]amino}carbonyl)amino]phenyl}pyrrolo[2,1-f][1,2,4]triazin-7-yl)methyl]piperazine-1-carboxylate]
10 to 100 |  | CCS(=O)(=O)N1CCN(Cc2cc(-c3ccc(NC(=O)Nc4cc(C(F)(F)F)ccc4F)cc3)c3c(N)ncnn23)CC1 [Example 84, N-[4-(4-amino-7-{[4-(ethylsulfonyl)piperazin-1-yl]methyl}pyrrolo[2,1-f][1,2,4]triazin-5-yl)phenyl]-N′-[2-fluoro-5-(trifluoromethyl)phenyl]urea]
10 to 100 |  | CC(C)S(=O)(=O)N1CCN(Cc2cc(-c3ccc(NC(=O)Nc4cc(C(F)(F)F)ccc4F)cc3)c3c(N)ncnn23)CC1 [Example 85, N-[4-(4-amino-7-{[4(isopropylsulfonyl)piperazin-1-yl]methyl}pyrrolo[2,1-f][1,2,4]triazin-5-yl)phenyl]-N′-[2-fluoro-5-(trifluoromethyl)phenyl]urea]
10 to 100 |  | Nc1ncnn2c(CN3CCN(S(=O)(=O)CC(F)(F)F)CC3)cc(-c3ccc(NC(=O)Nc4cc(C(F)(F)F)ccc4F)cc3)c12 [Example 86, N-{4-[4-amino-7-({4-[(2,2,2-trifluoroethyl)sulfonyl]piperazin-1-yl}methyl)pyrrolo[2,1-f][1,2,4]triazin-5-yl]phenyl}-N′-[2-fluoro-5-(trifluoromethyl)phenyl]urea]
< 10 |  | CC(=O)N1CCN(Cc2cc(-c3ccc(NC(=O)Nc4cc(C(F)(F)F)ccc4F)c(F)c3)c3c(N)ncnn23)CC1 [Example 89, N-(4-{7-[(4-acetylpiperazin-1-yl)methyl]-4-aminopyrrolo[2,1-f][1,2,4]triazin-5-yl}-2-fluorophenyl)-N′-[2-fluoro-5-(trifluoromethyl)phenyl]urea]
10 to 100 |  | CC(=O)c1cc(-c2ccc(NC(=O)Nc3cc(C(F)(F)F)ccc3F)cc2)c2c(N)ncnn12 [Example 100, N-[4-(7-acetyl-4-aminopyrrolo[2,1-f][1,2,4]triazin-5-yl)phenyl]-N′-[2-fluoro-5-(trifluoromethyl)phenyl]urea]
10 to 100 |  | Nc1ncnn2c(C(=O)CN3CCOCC3)cc(-c3ccc(NC(=O)Nc4cc(C(F)(F)F)ccc4F)cc3)c12 [Example 103, N-{4-[4-amino-7-(morpholin-4-ylacetyl)pyrrolo[2,1-f][1,2,4]triazin-5-yl]phenyl}-N′-[2-fluoro-5-(trifluoromethyl)-phenyl]urea]
